In PubChem BioAssay (NCI):
Where “and” joins values, the source holds several entries; their conditions need not be identical. Identical values can stand only once.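 Step 1: Grow cells in 96-well plates. Step 2: Expose to compound for 48 hours at 5 concentrations. Step 3: Interpolate endpoints linearly; if unreached, use highest concentration. Abbreviation: GI50, concentration required for 50% inhibition of growth. TGI is the concentration that stops growth completely.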

How the values were obtained:
Assay in all cases: DTP human tumour cell line panel, 48 h
[1] = tested on: UO-31 renal
[2] = tested on: T-47D breast
[3] = tested on: UACC-62 melanoma
[4] = tested on: CCRF-CEM leukemia
[5] = tested on: DU-145 prostate
[6] = tested on: SK-MEL-28 melanoma
[7] = tested on: TK-10 renal
[8] = tested on: SR leukemia
[9] = tested on: K-562 leukemia
[10] = tested on: HS 578T breast

Compound | GI50 [1] | TGI [1] | GI50 [2] | TGI [2] | GI50 [3] | TGI [3] | GI50 [4] | TGI [4] | GI50 [5] | TGI [5] | GI50 [6] | TGI [6] | GI50 [7] | TGI [7] | GI50 [8] | TGI [8] | GI50 [9] | TGI [9] | GI50 [10] | TGI [10]
COc1ccc(CCN2CCC(Nc3nc4ccccc4n3Cc3ccc(F)cc3)CC2)cc1 | 1.29 µM | 2.62 µM | 1.97 µM | 4.38 µM | 1.41 µM | 2.8 µM | 1.87 µM | 5.45 µM | 1.94 µM | 3.65 µM | 1.61 µM | 3.03 µM | 1.82 µM | 3.38 µM | 1.58 µM | 3.83 µM |  |  |  | 
COC1=CC(c2ccc[nH]2)=N/C1=C\c1[nH]c(C)c(C(C)=O)c1C | 0.226 µM | 0.641 µM | 2.75 µM | 19.2 µM |  |  | 0.0183 µM | > 100 µM | 0.355 µM | > 100 µM | 2.46 µM | > 100 µM | 1.06 µM | > 63.5 µM |  | 0.379 µM | 3.28 µM | > 45.4 µM | 0.552 µM | > 100 µM
COc1ccc(-c2cc(-c3cc(C)ccc3O)[nH]c(=O)n2)cc1 |  | > 100 µM |  |  |  | > 100 µM |  | > 100 µM |  |  |  | > 100 µM |  | > 100 µM |  | > 100 µM |  | > 100 µM |  | 
O=C1OC(c2ccccc2)=N/C1=C\c1cc(Cl)ccc1Cl |  | > 100 µM |  |  |  | > 100 µM |  | 66.8 µM |  |  |  | > 100 µM |  |  |  |  |  | > 100 µM |  | 
COC1OC(COS(=O)(=O)c2ccc(C)cc2)C(O)C(OS(=O)(=O)c2ccc(C)cc2)C1OS(=O)(=O)c1ccc(C)cc1 (configuration not stated) |  | > 100 µM |  |  |  |  |  | > 100 µM |  |  |  | > 100 µM |  |  |  | > 100 µM |  | > 100 µM |  | 
CCOC(=O)C(=O)Nc1c(C)cccc1C(C)C |  | > 100 µM |  |  |  | > 100 µM |  | > 100 µM |  |  |  | > 100 µM |  | > 100 µM |  | > 100 µM |  | > 100 µM |  | 
H-HIIKKIRTWYRKAWHVLGKV-NH2 | 18.6 µM | 36.5 µM |  |  |  |  | 3.71 µM | > 100 µM | 4.26 µM | 15.3 µM | 2.61 µM | 7.66 µM | 3.24 µM | 15.6 µM | 7.13 µM | 87.8 µM | 6.56 µM | > 100 µM | 3.56 µM | 18.7 µM
N#Cc1c(N)nc(NCc2ccccc2)c(C#N)c1-c1ccccc1Cl | 38.1 µM | > 100 µM | 67.3 µM | > 100 µM | 12.4 µM | 60.2 µM | 15.2 µM | 45.5 µM | 21.5 µM | 88.6 µM | 49.5 µM | > 100 µM | 22.3 µM | 66 µM | 10.8 µM | 32.8 µM |  |  | 11.3 µM | 43 µM
Nc1ccc(-c2nc3ccccc3o2)cc1S | 19.5 µM | 50.6 µM |  |  | 13.2 µM | 26 µM | 14 µM | 43.3 µM | 19.9 µM | 55.3 µM | 24.9 µM | 58.8 µM | 11.6 µM | 29 µM | 10.5 µM | 64 µM | 19 µM | > 100 µM | 16.4 µM | 63.8 µM
COC(=O)CS(=O)c1ccccc1 (configuration not stated) |  | 22.1 µM |  |  |  | > 100 µM |  | 63.2 µM |  |  |  | > 100 µM |  | > 100 µM |  |  |  | > 100 µM |  | 
O=C(O)c1cccc2cccc(C(=O)O)c12.[Hg] | 20.7 µM | 35 µM |  |  | > 100 µM | > 100 µM | 6.92 µM | 29.2 µM |  |  | 14.9 µM | 29.3 µM | 20.3 µM | 34.6 µM | 4.05 µM | 23.5 µM | 1.5 µM | 15.5 µM |  | 
COC(=O)C1=C(CS(=O)c2ccc([N+](=O)[O-])cc2[N+](=O)[O-])ON(C)C1c1ccccc1 (configuration not stated) |  | > 100 µM |  |  |  | > 75.2 µM |  | 37.9 µM |  |  |  | > 100 µM |  | > 74.8 µM |  |  |  | 34.5 µM |  | 
COC(=O)C(Cc1ccccc1)NC(=O)Cn1ccnc1[N+](=O)[O-] (configuration not stated) |  | > 100 µM |  |  |  | > 100 µM |  | > 100 µM |  |  |  | > 100 µM |  | > 100 µM |  |  |  | > 100 µM |  | 
O=C1c2cc([N+](=O)[O-])cc3cc([N+](=O)[O-])cc(c23)C(=O)N1CCCNCCNCCCN1C(=O)c2cc([N+](=O)[O-])cc3cc([N+](=O)[O-])cc(c23)C1=O |  | 3.35 µM |  | 6.72 µM |  | 1.48 µM |  | 6.46 µM |  | 19.4 µM |  | 2.11 µM |  | 7.04 µM |  |  |  | 14.9 µM |  | 
CCOC(=O)N[C@@H]1C2CC(=O)C(O2)[C@@H]1OC (some centres not stated) |  | > 100 µM |  |  |  | > 100 µM |  | > 100 µM |  |  |  | > 100 µM |  | > 100 µM |  | > 100 µM |  | > 100 µM |  | 
O=C(O)c1ccccc1-c1ccccc1C(=O)Nc1ccc2c(c1)[nH]c(=O)c1ccccc12 |  | > 100 µM |  | > 100 µM |  | > 100 µM |  | > 100 µM |  | > 100 µM |  | > 100 µM |  | > 100 µM |  |  |  | > 100 µM |  | > 100 µM
NC(=O)Nc1c([N+](=O)[O-])cc(C(F)(F)F)cc1[N+](=O)[O-] |  | > 100 µM |  |  |  | > 100 µM |  | > 100 µM |  |  |  | > 100 µM |  | > 100 µM |  | > 100 µM |  | > 100 µM |  | 
NCCCNCCSSC/C=C\CSSCCNCCCN |  | > 100 µM |  |  |  | > 100 µM |  | 32.3 µM and 62.5 µM |  |  |  | > 100 µM |  | > 100 µM |  |  |  | 62.3 µM and 65.1 µM |  | 
Cc1ccc(C(=O)C#Cc2c[nH]c(=O)[nH]c2=O)cc1 |  | 37.7 µM |  |  |  | 21.8 µM |  | 18.8 µM |  |  |  | 30.8 µM |  | 31.9 µM |  |  |  | 34.2 µM |  | 
CS(=O)(=O)c1ccc(Oc2cc(F)cc(C#N)c2)c2c1[C@H](O)C(F)(F)C2 | > 100 µM | > 100 µM | > 100 µM | > 100 µM |  |  | 21.9 µM | 47.5 µM | > 100 µM | > 100 µM | > 100 µM | > 100 µM | > 100 µM | > 100 µM | > 100 µM | > 100 µM | > 100 µM | > 100 µM | > 100 µM | > 100 µM
